Reference: patent publication US20090131437A1, “DISUBSTITUTED UREAS AS KINASE INHIBITORS” (CORIUM INTERNATIONAL, INC., priority 2005, published 2009)

Structure (SMILES) | melting point [°C]
CC(C)(C)c1cc(NC(=O)Nc2ccc(Oc3cc(N)ncn3)cc2F)n(-c2ccc(F)cc2)n1 [Example 14, 1-[4-(6-Amino-pyrimidin-4-yloxy)-2-fluoro-phenyl]-3-[5-tert-butyl-2-(4-fluoro-phenyl]-2H-pyrazol-3-yl]-urea] | 141 to 142
CNc1cc(Oc2ccc(NC(=O)Nc3cc(C(C)(C)C)nn3-c3cccc(C(=O)N4CCN(C)CC4)c3)cc2)ncn1 [Example 15, 1-{5-tert-Butyl-2-[3-(4-methyl-piperazine-1-carbonyl)-phenyl]-2H-pyrazol-3-yl}-3-[4-(6-methylamino-pyrimidin-4-yloxy)-phenyl]-urea] | 146 to 147
